Data taken from ChEMBL document CHEMBL1926531, “Butamben derivatives enhance BMP-2-stimulated commitment of C2C12 cells into osteoblasts with induction of voltage-gated potassium channel expression” (Bioorg Med Chem Lett, 2011).
The source made the active and inactive calls. The rule behind the calls is not given here.

How the values were obtained:
[1] = target: T1, Bone morphogenetic protein 2 (Homo sapiens) (UniProt P12643); experiment: Increase in BMP2-mediated osteoblastogenesis assessed as increase in nuclear translocation of Smad at 10 uM by Western blot analysis
T1 sequence (whole entry): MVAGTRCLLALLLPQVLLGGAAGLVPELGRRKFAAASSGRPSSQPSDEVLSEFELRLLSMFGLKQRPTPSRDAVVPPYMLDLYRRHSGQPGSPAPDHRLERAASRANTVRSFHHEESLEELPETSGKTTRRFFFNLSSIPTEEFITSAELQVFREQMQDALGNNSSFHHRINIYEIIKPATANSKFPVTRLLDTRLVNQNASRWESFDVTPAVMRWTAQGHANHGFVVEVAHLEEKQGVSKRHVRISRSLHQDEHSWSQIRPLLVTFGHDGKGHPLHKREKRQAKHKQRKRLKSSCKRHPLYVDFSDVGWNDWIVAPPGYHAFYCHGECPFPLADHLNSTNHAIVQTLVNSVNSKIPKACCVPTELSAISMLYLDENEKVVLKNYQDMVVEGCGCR

[2] = target: T1, Bone morphogenetic protein 2 (Homo sapiens); experiment: Increase in BMP2-mediated osteoblastogenesis assessed as increase in BMP7 protein level in mouse C2C12 cells at 10 uM by Western blot analysis; format: cell-based
[3] = target: T1, Bone morphogenetic protein 2 (Homo sapiens); experiment: Increase in BMP2-mediated osteoblastogenesis in mouse C2C12 cells assessed as increase in BMP6 mRNA level at 10 uM by SYBR-based RT-PCR; format: cell-based
[4] = target: T1, Bone morphogenetic protein 2 (Homo sapiens); experiment: Increase in human recombinant BMP2-mediated osteoblastogenesis assessed as increase in alkaline phosphatase mRNA expression in mouse C2C12 at 10 uM co-treated with BMP2 antagonist noggin on day 3 measured after 6 days by SYBR-based RT-PCR; format: functional
[5] = target: T1, Bone morphogenetic protein 2 (Homo sapiens); experiment: Increase in human recombinant BMP2-mediated osteoblastogenesis in mouse C2C12 cells assessed as induction of alkaline phosphatase activity after 6 days; format: cell-based
[6] = target: T1, Bone morphogenetic protein 2 (Homo sapiens); experiment: Increase in BMP2-mediated osteoblastogenesis in mouse C2C12 cells assessed as increase in OCN mRNA level at 10 uM by SYBR-based RT-PCR; format: cell-based
[7] = target: T1, Bone morphogenetic protein 2 (Homo sapiens); experiment: Increase in human recombinant BMP2-mediated osteoblastogenesis assessed as increase in alkaline phosphatase activity in mouse C2C12 cells at 10 uM treated with BMP2 antagonist on day 4 post compound challenge measured after 6 days; format: functional, cell-based
[8] = target: T1, Bone morphogenetic protein 2 (Homo sapiens); experiment: Increase in BMP2-mediated osteoblastogenesis assessed as increase in phosphorylated of Smad level in nucleus at 10 uM after 6 hrs by Western blot analysis
[9] = target: T1, Bone morphogenetic protein 2 (Homo sapiens); experiment: Increase in BMP2-mediated osteoblastogenesis assessed as increase in Kv1.5 mRNA expression at 10 uM after 3 days by RT-PCR analysis
[10] = target: T1, Bone morphogenetic protein 2 (Homo sapiens); experiment: Increase in BMP2-mediated osteoblastogenesis assessed as increase in phosphorylation of Smad at 10 uM by Western blot analysis
[11] = target: T1, Bone morphogenetic protein 2 (Homo sapiens); experiment: Increase in human recombinant BMP2-mediated osteoblastogenesis assessed as increase in alkaline phosphatase activity in mouse C2C12 at 10 uM co-treated with BMP2 antagonist noggin on day 3 measured after 6 days; format: functional
[12] = target: T1, Bone morphogenetic protein 2 (Homo sapiens); experiment: Increase in BMP2-mediated osteoblastogenesis assessed as increase in Kv4.2 mRNA expression at 10 uM after 6 hrs after 3 days by RT-PCR analysis
C2C12 = experiment: Induction of alkaline phosphatase activity in mouse C2C12 cells; format: cell-based
[13] = target: T1, Bone morphogenetic protein 2 (Homo sapiens); experiment: Increase in BMP2-mediated osteoblastogenesis assessed as increase in Kv1.1 mRNA expression at 10 uM by RT-PCR analysis
[14] = target: T1, Bone morphogenetic protein 2 (Homo sapiens); experiment: Increase in BMP2-mediated osteoblastogenesis in mouse C2C12 cells assessed as increase in BMP4 mRNA level at 10 uM by SYBR-based RT-PCR; format: cell-based
[15] = target: T1, Bone morphogenetic protein 2 (Homo sapiens); experiment: Increase in BMP2-mediated osteoblastogenesis assessed as increase in BMP2 protein level in mouse C2C12 cells at 10 uM by Western blot analysis; format: cell-based
[16] = target: T1, Bone morphogenetic protein 2 (Homo sapiens); experiment: Increase in BMP2-mediated osteoblastogenesis in mouse C2C12 cells assessed as increase in BMP9 mRNA level at 10 uM by SYBR-based RT-PCR; format: cell-based
[17] = target: T1, Bone morphogenetic protein 2 (Homo sapiens); experiment: Increase in human recombinant BMP2-mediated osteoblastogenesis assessed as increase in alkaline phosphatase mRNA expression in mouse C2C12 cells at 10 uM treated with BMP2 antagonist noggin on day 4 post compound challenge measured after 6 days by SYBR-based RT-PCR; format: functional, cell-based
[18] = target: T1, Bone morphogenetic protein 2 (Homo sapiens); experiment: Increase in BMP2-mediated osteoblastogenesis assessed as increase in Kv4.3 mRNA expression at 10 uM after 6 hrs after 3 days by RT-PCR analysis
[19] = target: T1, Bone morphogenetic protein 2 (Homo sapiens); experiment: Increase in BMP2-mediated osteoblastogenesis in mouse C2C12 cells assessed as increase in BMP7 mRNA level at 10 uM by SYBR-based RT-PCR; format: cell-based

Activity [1]	Activity [2]	Activity [3]	Activity [4]	Activity [5]	Activity [6]	Activity [7]	Activity [8]	Activity [9]	Activity [10]	Activity [11]	Activity [12]	Activity [13]	Activity [14]	Activity [15]	Activity [16]	Activity [17]	Activity [18]	Activity [19]	Compound	Activity (C2C12)
Active	Active	Active	inactive	Dose-dependent effect	Active	inactive	Active	Active	Active	inactive	Active	Active	Active	Active	Active	inactive	Active	Active	CCCCOC(=O)c1ccc(NC(C)=O)cc1	inactive
		Active		Dose-dependent effect	Active								Active		Active			Active	COC(=O)c1ccc(N)cc1	inactive
		Active		Dose-dependent effect	Active								Active		Active			Active	CC(C)OC(=O)c1ccc(N)cc1	inactive
		Active		Dose-dependent effect	Active								Active		Active			Active	CCCCOC(=O)c1ccc(N)cc1	inactive
